Data set [1] addresses T1, KIT D^814V (murine) (Mus musculus, UniProt P05532, D818V).
T1 construct: expressed in transfected cells; host or cells: Ba/F3
The experiment in a line: Ba/F3 cell proliferation (WST-1), KIT D814V. As to conditions: Ba/F3 cells expressing the enzyme, read-out: Cell-based assay IC50, KIT D^814V (murine). (Formazan colour is commonly taken as a measure of viable cells.)

For data set [2], the target named is PDGFRβ (Homo sapiens, UniProt P09619). The data set can be described thus: Recombinant kinase ELISA assay, PDGFRβ. The data set is classed as biochemical. Also noted: PDGF receptor β (residues 554–1106; BC032224); 6xHN (N); made in house; host or cells: baculovirus, Sf9 insect cells. Conditions: recombinant human enzyme; ELISA-based assay, poly(Glu,Tyr 4:1) substrate. Here is the method: (§1) Full details for the generation of recombinant human KIT intracellular domain and other protein kinases (including Lyn, platelet derived growth factor receptor β, epidermal growth factor receptor, fibroblast growth factor receptor 1, Src, HCK, PYK, FES, Btk, Bmx, c-Ret, c-Fms, Syk, and c-Met) are provided in the Supplemental Methods (see Supporting Information; Methods S1). Experiments on ABL1, Akt1, protein kinase C-α, insulin-like growth factor receptor 1, and Pim1 were carried out by Proqinase (Germany). All other recombinant protein kinases were performed in-house using an enzyme-linked immunoassay; experimental details are provided in the Supplemental Methods (see Supporting Information; Methods S1).
(In general: An ELISA detects its analyte on a solid surface through an enzyme-linked reagent.)

Data set [3] has as its target T2, Btk (Homo sapiens, UniProt Q06187).
T2 construct: Btk (2–659; BC109079); 6xHN (N); made in house; host or cells: baculovirus, Sf9 insect cells
The data set can be described thus: Recombinant kinase ELISA assay, Btk. The data set is classed as biochemical. As to conditions: recombinant human enzyme; ELISA-based assay, poly(Glu,Tyr 4:1) substrate. On the procedure:
as §1
(§2) The sequences encoding PDGF receptor β (residues 554–1106; GenBank accession no. BC032224), Lyn B (2–583; accession no. BC059394), fibroblast growth factor receptor 1 (572–959; accession no. BC018128), Src (2–536; accession no. BC011566), Btk (2–659; accession no. BC109079), Bmx (2–675; accession no. BC016652), c-Ret (713–1114; accession no. BC004257), c-Fms (538–972; BC047531), Syk (2–612; BC011399), Hck (2-526; accession no. BC014435), Fes (2-822; accession no. BC035357), PYK2 (2-1006; accession no. BC042599) and c-Met (949–1398; accession no. lifeseq3489592) were amplified by PCR from IMAGE cDNA clones purchased from Openbiosystems. […]

Data set [4] concerns human cord-blood-derived mast cells (CBMC). The data set can be described thus: TNF-α release by IgE-anti IgE-activated CBMC (ELISA). The data set is classed as cell-based. Conditions: Mast cell, 4 hours of stimulation. Here is the method: (see Supporting Information; Methods S1). […] Assays of β-hexosaminidase release and TNF-α release were made by stimulating the CBMC with 1 µg/ml of goat anti-human IgE (Vector Laboratories) for 30 minutes or 4 hours, respectively. β-hexosaminidase was measured in the supernatant and in the sonicated cell pellets and its net release calculated. For TNF-α determination, the cell-free supernatants were collected by centrifugation and frozen at −80°C until determination of mediator content by the use of a specific ELISA kit according to manufacturer's instructions (Coulter, France). All assays were performed in duplicate and counts were repeated twice for each well.
Human CBMC were produced by long-term culture of CD34+ progenitors purified from normal cord-blood. […] At the beginning of the culture, rhIL-3 (1 ng/ml) (R&D Systems Europe, France) was also added to induce maximal expansion of haematopoietic progenitors. After 3 days the IL-3 was removed and 4 days later cells were transferred to a complete serum-free medium containing rmSCF at 100 ng/ml, which was renewed every 7 days thereafter. After 8 weeks in culture ≥99% of the cells were identified as being mast cells by May-Grünwald-Giemsa staining of cytocentrifuged samples.

In data set [5] the test system is Salmonella typhimurium and Escherichia coli. The data set can be described thus: Bacterial reverse mutation test. As to conditions: our unpublished results.
Data set [6] addresses T3, Src (Homo sapiens, UniProt P12931).
T3 construct: Src (2–536; BC011566); 6xHN (N); made in house; host or cells: baculovirus, Sf9 insect cells
The data set can be described thus: Recombinant kinase ELISA assay, Src. Format: biochemical. As to conditions: recombinant human enzyme; ELISA-based assay, poly(Glu,Tyr 4:1) substrate. Here is the method: as §1
A 96-well microtitre plate (Immulon 2HB; ThermoLifeScience, Finland) was coated overnight with 0.25 mg/ml poly(Glu,Tyr 4:1), rinsed twice with 250 µl of washing buffer (10 mM phosphate-buffered saline [pH 7.4] and 0.05% Tween 20) and dried for 2 hours at room temperature. […] Reactions were initiated upon introduction of the enzyme and terminated with the addition of one reaction volume (50 μl) of 100 mM EDTA per 5 M urea mix. […] The final reaction product was quantified by spectrophotometry at 450 nm.

For data set [7], the target named is T4, c-Met (Homo sapiens, UniProt P08581).
T4 construct: c-Met (949–1398); 6xHN (N); made in house; host or cells: baculovirus, Sf9 insect cells
The experiment in a line: Recombinant kinase ELISA assay, c-Met. Conditions: recombinant human enzyme; ELISA-based assay, poly(Glu,Tyr 4:1) substrate. Format: biochemical. Here is the method: as §1, §2

Data set [8] addresses Jak2 (Homo sapiens, UniProt O60674). The data set can be described thus: Ba/F3 cell proliferation (WST-1), Jak2. As to conditions: Ba/F3 cells expressing the enzyme, read-out: Cell-based assay IC50, Jak2.
Data set [9] addresses T5, c-Ret (Homo sapiens, UniProt P07949).
T5 construct: expressed in transfected cells; host or cells: Ba/F3 (general description; not repeated for this kinase)
The data set can be described thus: Ba/F3 cell proliferation (WST-1), c-Ret. Conditions: Ba/F3 cells expressing the enzyme, read-out: Cell-based assay IC50, c-Ret.

Usually IC50 stands for the concentration at which inhibition is half-maximal. Usually inhibition stands for the relative decrease from the control value, in per cent.

T4 sequence (P08581 949-1390 limits assumed): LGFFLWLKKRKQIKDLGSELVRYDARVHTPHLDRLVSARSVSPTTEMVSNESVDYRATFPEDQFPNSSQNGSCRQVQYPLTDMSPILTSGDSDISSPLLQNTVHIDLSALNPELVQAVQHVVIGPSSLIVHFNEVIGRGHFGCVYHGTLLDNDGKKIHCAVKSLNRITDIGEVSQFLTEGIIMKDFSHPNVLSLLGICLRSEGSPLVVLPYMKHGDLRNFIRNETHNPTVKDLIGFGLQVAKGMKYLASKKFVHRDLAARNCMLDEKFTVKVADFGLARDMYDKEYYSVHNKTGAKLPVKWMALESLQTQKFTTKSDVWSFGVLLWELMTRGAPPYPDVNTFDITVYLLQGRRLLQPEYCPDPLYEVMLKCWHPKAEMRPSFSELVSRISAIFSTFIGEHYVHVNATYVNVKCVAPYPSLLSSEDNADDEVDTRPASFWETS
Chain of Jak2 (O60674 whole entry): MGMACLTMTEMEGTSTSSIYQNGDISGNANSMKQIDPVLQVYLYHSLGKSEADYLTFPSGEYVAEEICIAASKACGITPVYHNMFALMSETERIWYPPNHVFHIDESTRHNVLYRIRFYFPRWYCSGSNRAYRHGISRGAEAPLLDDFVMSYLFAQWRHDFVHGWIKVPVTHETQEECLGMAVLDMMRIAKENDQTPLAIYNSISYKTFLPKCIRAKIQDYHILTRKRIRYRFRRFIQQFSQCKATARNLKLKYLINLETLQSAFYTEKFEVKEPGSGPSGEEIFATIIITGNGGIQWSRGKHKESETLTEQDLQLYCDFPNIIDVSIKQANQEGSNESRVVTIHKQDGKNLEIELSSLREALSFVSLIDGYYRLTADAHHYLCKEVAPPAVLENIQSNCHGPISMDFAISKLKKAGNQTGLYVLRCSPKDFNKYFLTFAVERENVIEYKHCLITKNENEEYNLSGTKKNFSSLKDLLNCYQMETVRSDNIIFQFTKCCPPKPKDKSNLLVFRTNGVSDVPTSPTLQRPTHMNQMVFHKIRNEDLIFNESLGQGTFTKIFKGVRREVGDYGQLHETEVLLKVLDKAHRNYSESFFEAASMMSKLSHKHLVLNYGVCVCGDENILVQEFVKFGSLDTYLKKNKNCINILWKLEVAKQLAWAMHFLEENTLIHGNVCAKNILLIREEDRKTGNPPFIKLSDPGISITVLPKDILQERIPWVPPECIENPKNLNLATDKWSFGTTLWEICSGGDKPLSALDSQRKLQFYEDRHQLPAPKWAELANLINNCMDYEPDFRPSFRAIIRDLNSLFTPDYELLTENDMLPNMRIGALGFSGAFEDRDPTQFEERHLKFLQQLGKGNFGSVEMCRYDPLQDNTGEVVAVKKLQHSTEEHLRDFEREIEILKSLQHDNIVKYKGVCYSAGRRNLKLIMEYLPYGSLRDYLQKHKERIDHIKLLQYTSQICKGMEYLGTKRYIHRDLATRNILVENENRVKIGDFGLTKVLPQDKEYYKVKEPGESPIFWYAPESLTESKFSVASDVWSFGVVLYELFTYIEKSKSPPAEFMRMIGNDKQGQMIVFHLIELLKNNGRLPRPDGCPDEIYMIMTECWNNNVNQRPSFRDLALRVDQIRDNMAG
T3 sequence (P12931 2-536): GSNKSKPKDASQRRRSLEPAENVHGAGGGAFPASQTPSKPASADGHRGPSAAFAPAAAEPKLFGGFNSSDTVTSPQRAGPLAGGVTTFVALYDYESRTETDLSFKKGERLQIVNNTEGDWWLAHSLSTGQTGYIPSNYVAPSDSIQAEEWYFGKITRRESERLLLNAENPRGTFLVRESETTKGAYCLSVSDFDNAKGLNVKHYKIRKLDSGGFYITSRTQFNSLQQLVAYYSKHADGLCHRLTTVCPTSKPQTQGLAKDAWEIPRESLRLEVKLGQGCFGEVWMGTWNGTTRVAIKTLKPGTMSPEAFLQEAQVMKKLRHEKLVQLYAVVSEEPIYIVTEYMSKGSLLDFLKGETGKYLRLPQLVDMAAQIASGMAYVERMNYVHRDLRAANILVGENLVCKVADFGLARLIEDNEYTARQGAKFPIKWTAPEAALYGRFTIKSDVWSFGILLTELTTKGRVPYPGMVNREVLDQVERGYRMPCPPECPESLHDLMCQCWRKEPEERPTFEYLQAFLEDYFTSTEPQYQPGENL
Chain of PDGFRβ (P09619 554-1106): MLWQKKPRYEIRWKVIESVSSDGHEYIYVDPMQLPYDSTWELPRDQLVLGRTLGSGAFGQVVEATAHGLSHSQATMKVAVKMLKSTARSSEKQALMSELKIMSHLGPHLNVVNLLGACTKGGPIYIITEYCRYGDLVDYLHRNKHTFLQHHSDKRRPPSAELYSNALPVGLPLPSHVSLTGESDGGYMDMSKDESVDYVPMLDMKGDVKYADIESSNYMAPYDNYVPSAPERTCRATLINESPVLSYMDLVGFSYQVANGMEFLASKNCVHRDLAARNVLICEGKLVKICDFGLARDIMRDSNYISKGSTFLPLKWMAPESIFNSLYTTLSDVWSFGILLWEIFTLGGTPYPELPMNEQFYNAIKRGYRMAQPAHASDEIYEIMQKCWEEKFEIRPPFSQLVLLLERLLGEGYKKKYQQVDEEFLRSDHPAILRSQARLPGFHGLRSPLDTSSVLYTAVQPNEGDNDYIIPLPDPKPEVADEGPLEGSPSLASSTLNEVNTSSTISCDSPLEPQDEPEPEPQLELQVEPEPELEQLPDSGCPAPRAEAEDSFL
T2 sequence (Q06187 2-659): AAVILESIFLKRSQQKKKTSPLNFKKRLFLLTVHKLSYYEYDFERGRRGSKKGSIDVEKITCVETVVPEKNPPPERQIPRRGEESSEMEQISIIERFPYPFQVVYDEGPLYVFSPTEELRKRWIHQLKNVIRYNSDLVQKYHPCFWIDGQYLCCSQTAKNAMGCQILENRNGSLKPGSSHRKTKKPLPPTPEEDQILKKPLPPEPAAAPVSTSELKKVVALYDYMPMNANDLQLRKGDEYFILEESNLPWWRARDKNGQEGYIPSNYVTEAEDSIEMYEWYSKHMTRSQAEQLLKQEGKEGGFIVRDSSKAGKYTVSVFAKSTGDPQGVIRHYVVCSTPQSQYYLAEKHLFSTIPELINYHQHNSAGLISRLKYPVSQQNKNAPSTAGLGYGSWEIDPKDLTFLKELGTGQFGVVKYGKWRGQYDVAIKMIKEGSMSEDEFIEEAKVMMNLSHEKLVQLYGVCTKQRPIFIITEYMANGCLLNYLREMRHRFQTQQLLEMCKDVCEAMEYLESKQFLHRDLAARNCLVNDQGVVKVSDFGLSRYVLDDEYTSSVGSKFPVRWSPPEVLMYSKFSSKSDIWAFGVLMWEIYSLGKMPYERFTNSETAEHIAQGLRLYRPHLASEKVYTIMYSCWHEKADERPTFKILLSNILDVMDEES
T1 sequence (P05532 25-975 isoform P05532-2 D814V limits assumed): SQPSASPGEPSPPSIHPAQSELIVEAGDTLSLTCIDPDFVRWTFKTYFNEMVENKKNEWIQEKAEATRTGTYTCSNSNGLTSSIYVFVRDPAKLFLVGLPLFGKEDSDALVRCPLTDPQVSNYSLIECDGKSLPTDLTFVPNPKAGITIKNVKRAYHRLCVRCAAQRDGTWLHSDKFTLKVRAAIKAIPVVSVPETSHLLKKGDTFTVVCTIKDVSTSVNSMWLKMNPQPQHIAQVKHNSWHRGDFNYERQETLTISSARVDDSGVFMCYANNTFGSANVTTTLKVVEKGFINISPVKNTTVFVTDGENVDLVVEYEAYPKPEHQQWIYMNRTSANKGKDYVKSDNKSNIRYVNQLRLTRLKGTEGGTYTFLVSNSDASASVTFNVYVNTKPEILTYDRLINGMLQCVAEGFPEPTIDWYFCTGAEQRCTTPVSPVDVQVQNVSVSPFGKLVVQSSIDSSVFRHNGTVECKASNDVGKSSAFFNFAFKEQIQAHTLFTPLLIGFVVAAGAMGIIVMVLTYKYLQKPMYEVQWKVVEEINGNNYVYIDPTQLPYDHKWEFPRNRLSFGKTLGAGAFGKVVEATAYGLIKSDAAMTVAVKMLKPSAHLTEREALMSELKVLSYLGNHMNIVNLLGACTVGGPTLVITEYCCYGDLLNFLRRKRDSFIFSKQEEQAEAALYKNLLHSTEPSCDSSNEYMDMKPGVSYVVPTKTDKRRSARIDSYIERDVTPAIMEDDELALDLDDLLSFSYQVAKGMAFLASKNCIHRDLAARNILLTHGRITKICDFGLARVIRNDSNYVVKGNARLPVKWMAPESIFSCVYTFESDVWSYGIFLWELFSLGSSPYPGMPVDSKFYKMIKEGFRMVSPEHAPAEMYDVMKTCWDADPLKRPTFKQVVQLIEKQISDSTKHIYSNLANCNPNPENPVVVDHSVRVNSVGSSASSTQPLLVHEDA

As for `CS(=O)(=O)O.CS(=O)(=O)O.Cc1ccc(NC(=O)c2ccc(CN3CCN(C)CC3)cc2)cc1Nc1nc(-c2cccnc2)cs1` [masitinib, 4-(4-methylpiperazin-1-ylmethyl)-N-[4-methyl-3-(4-pyridin-3ylthiazol-2-ylamino)phenyl]benzamide-mesylate methane sulfonic acid salt], the half-maximal inhibitory concentration (IC50) in data set [1] is 3 ± 0.1 µM; in data set [2] it was 0.8 ± 0.12 µM; in data set [3], above 10 µM; in data set [6] it was 1.87 ± 0.31 µM; in data set [7], above 10 µM; in data set [8] it was 10 ± 0.8 µM. Besides, in data set [9], the 50% inhibitory concentration (IC50) was determined as 8 ± 1.2 µM. Besides, the inhibition at 0.1 µM in data set [4] (0.1 µM) is 16%. Also, 1 µM produced 40% inhibition in data set [4] (1.0 µM). Also, the inhibition at 10 µM in data set [4] (10 µM) is 68%. For the same molecule, the “mutagenicity in bacterial reverse mutation tests” value in data set [5] is “not mutagenic”.

The values are drawn from paper PMC2746281 (PLoS ONE, 2009).
